Structures are written as SMILES.

One assay concerns the target CK1ε (Homo sapiens (Human), UniProt P49674). As to the kind of experiment: CK1ε kinase assay (Caliper LabChip, fluoresceinated peptide substrate). The class given is biochemical. Conditions: 200 pM CK1ε, 50 μM ATP, 1.5 μM peptide substrate, 22 hours room temperature. Here is the method:
(§1) CK1ε and CK1δ Kinase Assays
(§2) The kinase assay was performed in V-bottom 384-well plates. […] The reaction was incubated at room temperature for 22 hours and terminated by adding 45 μl of 35 mM EDTA to each sample. […] Compounds were dissolved at 10 mM in dimethylsulfoxide (DMSO) and evaluated at eleven concentrations. IC50 values were derived by non-linear regression analysis.

The target in the next assay is CK1δ (Homo sapiens (Human), UniProt P48730). As to the kind of experiment: CK1δ kinase assay (Caliper LabChip, fluoresceinated peptide substrate). The class given is biochemical. Conditions: 200 pM CK1δ, 50 μM ATP, 1.5 μM peptide substrate, 22 hours room temperature. Here is the method: as §1, §2
Chain of CK1δ (P48730 whole entry): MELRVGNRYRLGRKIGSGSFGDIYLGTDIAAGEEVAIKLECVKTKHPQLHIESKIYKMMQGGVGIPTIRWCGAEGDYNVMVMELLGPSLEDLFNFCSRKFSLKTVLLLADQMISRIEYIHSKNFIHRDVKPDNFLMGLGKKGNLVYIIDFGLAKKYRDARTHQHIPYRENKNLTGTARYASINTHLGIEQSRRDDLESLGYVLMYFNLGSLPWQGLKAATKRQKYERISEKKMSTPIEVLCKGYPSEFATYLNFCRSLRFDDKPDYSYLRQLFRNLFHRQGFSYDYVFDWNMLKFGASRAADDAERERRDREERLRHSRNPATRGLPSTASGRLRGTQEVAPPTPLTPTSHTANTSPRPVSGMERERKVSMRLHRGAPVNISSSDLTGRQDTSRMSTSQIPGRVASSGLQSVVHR

Chain of CK1ε (P49674 whole entry): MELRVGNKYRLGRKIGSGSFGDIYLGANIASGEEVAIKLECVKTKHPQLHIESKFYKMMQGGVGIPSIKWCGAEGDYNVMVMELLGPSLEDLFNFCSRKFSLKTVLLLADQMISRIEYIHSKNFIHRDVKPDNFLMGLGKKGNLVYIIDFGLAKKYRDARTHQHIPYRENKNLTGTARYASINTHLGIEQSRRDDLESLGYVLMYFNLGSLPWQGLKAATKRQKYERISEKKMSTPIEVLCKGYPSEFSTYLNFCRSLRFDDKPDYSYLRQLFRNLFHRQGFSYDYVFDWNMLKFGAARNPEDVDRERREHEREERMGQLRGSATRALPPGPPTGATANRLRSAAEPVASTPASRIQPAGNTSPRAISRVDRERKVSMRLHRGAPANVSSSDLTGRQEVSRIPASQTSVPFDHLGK

`Cc1nc(C(F)(F)F)ccc1C(=O)Nc1cn2nc(-c3cn(C)nc3-c3ccc(F)cc3)ccc2n1` [Compound 95, N-(6-(3-(4-fluorophenyl)-1-methyl-1H-pyrazol-4-yl)imidazo[1,2-b]pyridazin-2-yl)-2-methyl-6-(trifluoromethyl)nicotinamide]: the IC50 on CK1ε worked out at 17.2 nM; on CK1δ, 6.5 nM.
In the same order, the values of `Cn1cc(-c2ccc3nc(NC(=O)c4ccc(CN5CCCC5)cc4)cn3n2)c(-c2ccc(F)cc2)n1` [Compound 30, N-(6-(3-(4-fluorophenyl)-1-methyl-1H-pyrazol-4-yl)imidazo[1,2-b]pyridazin-2-yl)-4-(pyrrolidin-1-ylmethyl)benzamide] are 7.9 nM and 5.8 nM.
In the same order, the values of `Cn1nc(-c2ccc(F)cc2)c(-c2ccc3nc(NC(=O)c4ccnc(F)c4)cn3n2)c1C1CCN(C(=O)c2ccon2)CC1` [Compound 153, 2-fluoro-N-(6-(3-(4-fluorophenyl)-5-(1-(isoxazole-3-carbonyl)piperidin-4-yl)-1-methyl-1H-pyrazol-4-yl)imidazo[1,2-b]pyridazin-2-yl)isonicotinamide] are 2.2 nM and 0.3 nM.
The matching figures for `Cn1nc(-c2ccc(F)cc2)c(-c2ccc3nc(NC(=O)c4ccnc(N5CCOCC5)c4)cn3n2)c1N1CCN(CCC(F)(F)F)CC1` [Compound 135, N-(6-(3-(4-Fluorophenyl)-1-methyl-5-(4-(3,3,3-trifluoropropyl)piperazin-1-yl)-1H-pyrazol-4-yl)imidazo[1,2-b]pyridazin-2-yl)-2-morpholinoisonicotinamide]: 35 nM and 1.6 nM.
For the compound `Cc1nc(-c2ccncc2)sc1C(=O)Nc1cn2nc(-c3cn(C4CC4)nc3-c3ccc(F)cc3)ccc2n1` [Compound 111, N-(6-(1-cyclopropyl-3-(4-fluorophenyl)-1H-pyrazol-4-yl)imidazo[1,2-b]pyridazin-2-yl)-4-methyl-2-(pyridin-4-yl)thiazole-5-carboxamide], the half-maximal inhibitory concentration (IC50) was 35 nM on CK1ε and 6.2 nM on CK1δ.
`Cn1cc(-c2ccc3nc(Nc4ncccn4)cn3n2)c(-c2ccc(F)cc2)n1` [Compound 185, 6-(3-(4-Fluorophenyl)-1-methyl-1H-pyrazol-4-yl)-N-(pyrimidin-2-yl)imidazo[1,2-b]pyridazin-2-amine]: the half-maximal inhibitory concentration (IC50) against CK1ε was found to be 48 nM; at CK1δ, 16 nM.
In the same order, the values of `Cn1cc(-c2ccc3nc(NC(=O)C4CCCC4)cn3n2)c(-c2ccc(F)cc2)n1` [Compound 86, N-(6-(3-(4-fluorophenyl)-1-methyl-1H-pyrazol-4-yl)imidazo[1,2-b]pyridazin-2-yl)cyclopentanecarboxamide] are 15.7 nM and 5.6 nM.
Take `COc1ccc(C(=O)Nc2cn3nc(-c4cn(C)nc4-c4ccc(F)cc4)ccc3n2)c(OC)n1` [Compound 75, N-(6-(3-(4-fluorophenyl)-1-methyl-1H-pyrazol-4-yl)imidazo[1,2-b]pyridazin-2-yl)-2,6-dimethoxynicotinamide]: the results for the IC50 at CK1ε and against CK1δ were 363 nM and 41 nM, respectively.
The matching figures for `Cn1cc(-c2ccc3nc(NC(=O)c4csc(Br)n4)cn3n2)c(-c2ccc(F)cc2)n1` [Compound 13, 2-bromo-N-(6-(3-(4-fluorophenyl)-1-methyl-1H-pyrazol-4-yl)imidazo[1,2-b]pyridazin-2-yl)thiazole-4-carboxamide]: 22.9 nM and 2.6 nM.
The matching figures for `Cn1nc(-c2ccc(F)cc2)c(-c2ccc3nc(NC(=O)c4ccncc4)cn3n2)c1N1CCN(Cc2ccon2)CC1` [Compound 131, N-(6-(3-(4-Fluorophenyl)-5-(4-(isoxazol-3-ylmethyl)piperazin-1-yl)-1-methyl-1H-pyrazol-4-yl)imidazo[1,2-b]pyridazin-2-yl)isonicotinamide]: 3.1 nM and 0.3 nM.
The matching figures for `Cn1nc(-c2ccc(F)cc2)c(-c2ccc3nc(NC(=O)c4cccc(-c5cccnc5)c4)cn3n2)c1-c1ccncc1` [Compound 205, N-(6-(3-(4-Fluorophenyl)-1-methyl-5-(pyridin-4-yl)-1H-pyrazol-4-yl)imidazo[1,2-b]pyridazin-2-yl)-3-(pyridin-3-yl)benzamide]: 9.8 nM and 0.9 nM.
As for `Cn1nc(-c2ccc(F)cc2)c(-c2ccc3nc(NC(=O)c4ccnc(N5CCOCC5)c4)cn3n2)c1N1CCN(C(=O)c2ccon2)CC1` [Compound 137, N-(6-(3-(4-Fluorophenyl)-5-(4-(isoxazole-3-carbonyl)piperazin-1-yl)-1-methyl-1H-pyrazol-4-yl)imidazo[1,2-b]pyridazin-2-yl)-2-morpholinoisonicotinamide], the IC50 came out at 10.1 nM against CK1ε and 1 nM on CK1δ.
Turning to `Cn1nc(-c2ccc(F)cc2)c(-c2ccc3nc(NC(=O)c4ccnc(N5CCOCC5)c4)cn3n2)c1C1CCOCC1` [Compound 198, N-(6-(3-(4-Fluorophenyl)-1-methyl-5-(tetrahydro-2H-pyran-4-yl)-1H-pyrazol-4-yl)imidazo[1,2-b]pyridazin-2-yl)-2-morpholinoisonicotinamide], the values for the IC50 at CK1ε and against CK1δ were 4.8 nM and 0.5 nM, respectively.
In the case of `Cn1nc(-c2ccc(F)cc2)c(-c2ccc3nc(NC(=O)c4ccnc(F)c4)cn3n2)c1-c1ccncc1` [Compound 202, 2-Fluoro-N-(6-(3-(4-fluorophenyl)-1-methyl-5-(pyridin-4-yl)-1H-pyrazol-4-yl)imidazo[1,2-b]pyridazin-2-yl)isonicotinamide], the figures for the IC50 against CK1ε and against CK1δ were 8.1 nM and 0.5 nM, respectively.
In the same order, the values of `Cn1cc(-c2ccc3nc(NC(=O)c4cncc(O)c4)cn3n2)c(-c2ccc(F)cc2)n1` [Compound 70, N-(6-(3-(4-fluorophenyl)-1-methyl-1H-pyrazol-4-yl)imidazo[1,2-b]pyridazin-2-yl)-5-hydroxynicotinamide] are 4.7 nM and 2 nM.
The matching figures for `Cn1nc(-c2ccc(F)cc2)c(-c2ccc3nc(NC(=O)c4ccncc4)cn3n2)c1C1CCN(C2CC2)CC1` [Compound 166, N-(6-(5-(1-cyclopropylpiperidin-4-yl)-3-(4-fluorophenyl)-1-methyl-1H-pyrazol-4-yl)imidazo[1,2-b]pyridazin-2-yl)isonicotinamide]: 1.9 nM and 1.4 nM.
For the compound `Cn1cc(-c2ccc3nc(NC(=O)c4cc(C#N)ccc4F)cn3n2)c(-c2ccc(F)cc2)n1` [Compound 55, 5-cyano-2-fluoro-N-(6-(3-(4-fluorophenyl)-1-methyl-1H-pyrazol-4-yl)imidazo[1,2-b]pyridazin-2-yl)benzamide], the half-maximal inhibitory concentration (IC50) was found to be 12.1 nM against CK1ε and 4.1 nM on CK1δ.
In the same order, the values of `Cn1nc(-c2ccc(F)cc2)c(-c2ccc3nc(NC(=O)c4ccnc(F)c4)cn3n2)c1N1CCNCC1` [Compound 113, 2-fluoro-N-(6-(3-(4-fluorophenyl)-1-methyl-5-(piperazin-1-yl)-1H-pyrazol-4-yl)imidazo[1,2-b]pyridazin-2-yl)isonicotinamide] are 2.3 nM and 0.6 nM.
The matching figures for `Cn1nc(-c2ccc(F)cc2)c(-c2ccc3nc(NC(=O)c4ccnc(F)c4)cn3n2)c1N1CCN(CCS(C)(=O)=O)CC1` [Compound 126, 2-Fluoro-N-(6-(3-(4-fluorophenyl)-1-methyl-5-(4-(2-(methylsulfonyl)ethyl)piperazin-1-yl)-1H-pyrazol-4-yl)imidazo[1,2-b]pyridazin-2-yl)isonicotinamide]: 124 nM and 2.9 nM.

For the origin of these results see patent US9475817B2 (BRISTOL-MYERS SQUIBB COMPANY, priority 2012, dated 2016).
